Measurements as given in patent US20180112006A1, “AGENTS, SYSTEMS AND METHODS FOR TREATING CANCER” (THE GENERAL HOSPITAL CORPORATION, priority 2015, published 2018).

How the values were obtained:
NSC-TR-TK-GF1 cells [1] = experiment: Ganciclovir elimination of NSC-TR-TK-GF1 in vitro; format: cell-based, mouse; conditions: 10 mg/ml GCV
Experimental: (FIG. 11A) Representative phase and fluorescent images of NSC-TR-TK-GF1 in the presence or absence of 10 mg/ml GCV. Plot showing the Fluc activity of transduced cells in vitro. (FIG. 11B) Viability of MBr-FmC cells co-cultured with modified NSC at 1:1 ratio as measured by Fluc activity in vitro. The effects of NSC engineered with TK or TK-TR are shown. (FIG. 11C) Upper, outline of the experiment. Representative fluorescent images of metastatic MBr-RmC tumors in the mouse brain with or without NSC-TR-TK-GF1 administration to show post-tumor treatment (scale bar=100 μm).
To translate NSC-S-TRAIL therapy for brain metastasis into clinics, it is critical to follow the long-term fate of NSCs post-tumor treatment and ultimately, selectively eradicate therapeutic NSCs to avoid continuous access of therapeutic agent to normal brain tissue and to circumvent any malignant transformation of NSCs. To address this, NSC-S-TRAIL expressing cells were engineered to further express herpes simplex virus thymidine kinase (HSV-TK) and GFP-Fluc (GF1) (NSC-TR-TK-GF1) and tested for efficacy of thymidine kinase suicide therapy in vitro. […] Further, the efficacy of ganciclovir to eradicate NSCs in non-tumor bearing brain was tested. […] Next, the eradication of therapeutic NSCs post-tumor treatment in vivo was tested. NSC-TR-TK-GF1 expressing cells were intracranially injected into MBr-RmC tumor-bearing brains.

hMSC-TR-TK = experiment: Ganciclovir eradication of modified human MSCs in vitro; format: cell-based; set-up: dose or concentration left out as unconfirmed
Experimental: (§1) (FIG. 6A) Plot showing the viability of MBr-FmC cells co-cultured with engineered human NSCs expressing TRAIL (TR), both TRAIL and HSV-TK (TR-TK) or GFP as measured by Fluc activity in vitro. (FIG. 6B) Plot showing the viability of modified human NSCs treated with ganciclovir (10 mg/ml). (FIG. 6C) Plot showing the viability of MBr-FmC cells co-cultured with engineered human MSC expressing TRAIL (TR), both TRAIL and HSV-TK (TR-TK) or GFP. (FIG. 6D) Plot showing the viability of modified human MSCs treated with ganciclovir (10 mg/ml).
(§2) To make the therapeutic strategy more clinically relevant, human NSCs and human MSCs were used and the efficacy of the TRAIL/thymidine kinase system on metastatic tumor cells was tested. Human NSCs and MSCs were engineered to express secreted TRAIL (hNSC-TR/hMSC-TR) or co-express secreted TRAIL and HSV-TK (hNSC-TR-TK/hMSC-TR-TK), and established co-cultures of MBr-FmC with different proportions of modified human NSCs and MSCs.

NSC-TR-TK-GF1 cells [2] = experiment: Ganciclovir eradication of NSC-TR-TK-GF1 in mouse brains, Fluc bioluminescence imaging; format: in vivo, mice; conditions: for eradication of NSCs in non-tumor bearing brain: ganciclovir 75 mg/kg i.p. daily
Experimental: Two hundred thousand NSC-TR-TK-GF1 cells were either intracranially or intracarotidly injected in nude mice. Seven days after intracranial injection, or 3 days after intracarotid injection, daily PBS or ganciclovir (75 mg/kg body weight) were administrated via intraperitoneal (i.p.) injection for 2 weeks. NSC fate was assessed by bioluminescence imaging at various time points. To assess the eradication of therapeutic NSC post-tumor treatment, MBr-RmC cells (50 000 cells/mouse) were intracranially injected in nude mice and tumor-bearing mice were injected intratumorally with NSC-TR-TK-GF1 (50 000 cells/mouse) in the mouse brain. Daily PBS or ganciclovir were administrated via intraperitoneal injection after 4 days of NSC injection and the fate of NSCs was assessed by bioluminescence imaging at different time points.

hNSC-TR-TK = experiment: Ganciclovir eradication of modified human NSCs in vitro; format: cell-based; set-up: dose or concentration left out as unconfirmed
Experimental: as §1, §2

metastatic MBr cells = experiment: TRAIL killing of tumor cells versus normal cells; format: cell-based

Compound | elimination of modified NSC in vitro (Fluc, GFP) (NSC-TR-TK-GF1 cells [1]) | eradication of hMSC-TR-TK in vitro (hMSC-TR-TK) | eradication of therapeutic NSCs post-tumor treatment (NSC-TR-TK-GF1 cells [2]; MBr-RmC tumor-bearing brains, vs PBS) | eradication of NSCs in non-tumor bearing brain (NSC-TR-TK-GF1 cells [2]; NSCs implanted via intracranial route) | eradication of NSCs in non-tumor bearing brain (NSC-TR-TK-GF1 cells [2]; NSCs via intracarotid route) | eradication of hNSC-TR-TK in vitro (hNSC-TR-TK) | killing of tumor cells versus normal cells (metastatic MBr cells)
Nc1nc(O)c2ncn(COC(CO)CO)c2n1 [ganciclovir] | eliminated | successfully eradicated | eradication of therapeutic NSC-TR-TK-GF1 | substantially eradicated | substantially eradicated | successfully eradicated | 
TRAIL |  |  |  |  |  |  | specifically killed the tumor cells instead of the normal cells
